Patent publication US20040029808A1, “Peptides capable of functioning as mimotopes for hormonal analytes” (priority 2000, published 2004)
Ends that are not written are not given here.

The substances below were run on MAb4155 (anti-estrone-3-glucuronide monoclonal antibody) (assay: ELISA testing of peptides on pins: binding of MAb4155 to peptides). Settings: D-isomer reverse sequence versus L-isomer parent.
Set-up: species or system mouse

With “Asp-Tyr-Phe-Leu-Gly (DYFLG) [SEQ ID NO:37]” the “Binding affinity relative to the parent sequence (SEQ ID NO:28)” value was “equivalent”.

Each substance was assayed on MAb4155 (anti-estrone-3-glucuronide monoclonal antibody) in the same assay as above. Settings: Table 1; peptides on pins based on SEQ ID NO:2 (truncations, Ala/Gly replacement).
Set-up: species or system mouse
Protocol: Monoclonal antibodies MAb 4155 were expressed from the 4155 monoclonal cell line. The 4155 monoclonal cell line was prepared and screened according to the methods described by Gani et al., (3 Steroid Biochem. Molec. Biol. 48, 277-282 (1994)).
Peptides were synthesised in duplicate or triplicate from the C-terminus by solid phase peptide synthesis on the heads of polyethylene pins (Geysen et al., Strategies for epitope analysis using peptide synthesis. J. Immunol. Methods 102, 259-274 (1987)) using a Multipin Peptide Synthesis Kit (Chiron Mimotopes, Victoria, Australia). Pins were arranged in a plastic holder in the format of a 96-well microtitre plate.
All incubation steps were performed at room temperature (18-25° C.) by lowering the pins reagents dispensed into 96-well microtitre plates (Becton Dickinson, Calif., USA). Washing was accomplished by placing the block of pins in a bath of phosphate buffered saline (PBS) containing Tween 20™ (0.01% v/v) with agitation for four cycles of 5 min. Non-specific binding sites on the surface of the pins were blocked by incubating in PBS containing casein (1% w/v, 175 μl/well) for 1 h. MAb4155 was diluted in blocking buffer and the pins were incubated in the antibody solution (150 μl/well) for 18 h at 4° C. After washing, the pins were incubated in horseradish peroxidase (HRP)-conjugated rabbit anti-mouse immunoglobulin (Dako, High Wycombe, UK, 1/1000 in blocking buffer for 1 h at 150 μl/well). The pins were washed once more and then incubated in ABTS [2,2′-azino-bis (3ethylbenzothiazoline-6-sulphonic acid)] working substrate for 15 min (150 μl/well). ABTS was prepared as a 0.033% (w/v) solution in 0.1M citrate phosphate buffer (pH 4.5) with 33% hydrogen peroxide (1 μl/ml). Colour development was terminated by removal of the pins from the wells and was measured spectrophotometrically at 405 nm using a Milenia Kinetic Analyser™ (DPC, Llanberis, Wales).
In order to identify core binding regions, a set of peptides was synthesised on the heads of pins based on SEQ ID NO:2. […] In addition, a set of peptides was synthesised in which each residue of the lead sequence was replaced by Ala (or Gly if Ala already existed at that position) in order to assess the contribution of each residue to the binding event.
Additional core binding sequences were identified utilizing the amino acid sequence SEQ ID NO:8 and investigating the effect of systematic replacement of each residue by the other 19 naturally occurring amino acids using known techniques as exemplified in Verhoeyen et al., Construction of a reshaped HMFG1 antibody and comparison of its fine specificity with that of the parent mouse antibody. Immunology, 78, 364-370 (1993).

Compared with Ala-Ala-Glu-Arg (AAER) [SEQ ID NO:75], AAARGLFED [SEQ ID NO:14] is higher in “Relative Binding of MAb4155 to peptides as measured by ELISA” value (shortened to “Relative Binding of MAb4155 to peptides”): 0.8 for the first, 1.5 for the second.

Going from AAERGL [SEQ ID NO:73] to GAERGLFED [SEQ ID NO:12], the “Relative Binding of MAb4155 to peptides” value rises from 1.0 to 1.9.

Compared with AGERGLFED [SEQ ID NO:13], AAERGLAED [SEQ ID NO:78] is lower in “Relative Binding of MAb4155 to peptides” value: 2.0 for the first, 0.8 for the second.

First: AAERGLFE [SEQ ID NO:71]
Second: AAERALFED [SEQ ID NO:16]
The “Relative Binding of MAb4155 to peptides” value of the first is lower: 1.0 for the first, 1.5 for the second.

First: Gly-Leu-Phe-Glu-Asp (GLFED) [SEQ ID NO:8]
Second: AAERGLFEA [SEQ ID NO:80]
The “Relative Binding of MAb4155 to peptides” value of the first is higher: 2.2 for the first, 1.1 for the second.

Compared with Leu-Phe-Glu-Asp (LFED) [SEQ ID NO:7], AAERGLFED [SEQ ID NO:2] is higher in “Relative Binding of MAb4155 to peptides” value: 1.9 for the first, 2.0 for the second.

Going from AAEAGLFED [SEQ ID NO:15] to Ala-Ala-Glu (AAE) [SEQ ID NO:76], the “Relative Binding of MAb4155 to peptides” value falls from 2.0 to 0.9.

Going from “Ala-Ala-Glu-Arg-Gly (AAERG) [SEQ ID NO:74]” to ERGLFED [SEQ ID NO:10], the “Relative Binding of MAb4155 to peptides” value rises from 1.0 to 1.8.

First: AAERGAFED [SEQ ID NO:17]
Second: AAERGLFAD [SEQ ID NO:79]
The “Relative Binding of MAb4155 to peptides” value of the first is lower: 1.6 for the first, 1.8 for the second.

First: RGLFED [SEQ ID NO:9]
Second: Phe-Glu-Asp (FED) [SEQ ID NO:6]
The “Relative Binding of MAb4155 to peptides” value of the first is lower: 1.6 for the first, 2.0 for the second.

Compared with AERGLFED [SEQ ID NO:11], AAERGLF [SEQ ID NO:72] is lower in “Relative Binding of MAb4155 to peptides” value: 1.5 for the first, 1.0 for the second.

Same assay, conditions: Table 2; replacement analogues of SEQ ID NO:8, setting SEQ ID NO:8 to a Relative Binding of 100

First: Gly-Leu-Trp-Glu-Asp (GLWED) [SEQ ID NO:21]
Second: Gly-Phe-Phe-Glu-Asp (GFFED) [SEQ ID NO:18]
The “Relative Binding of MAb4155 to peptides” value of the first is higher: 207 for the first, 200 for the second.

Compared with “Gly-Leu-Phe-Glu-Val (GLFEV) [SEQ ID NO:33]”, “Gly-Leu-Phe-Cys-Asp (GLFCD) [SEQ ID NO:22]” is higher in “Relative Binding of MAb4155 to peptides” value: 177 for the first, 335 for the second.

Compared with “Gly-Leu-Phe-Ile-Asp (GLFID) [SEQ ID NO:25]”, “Gly-Leu-Phe-Tyr-Asp (GLFYD) [SEQ ID NO:28]” is higher in “Relative Binding of MAb4155 to peptides” value: 169 for the first, 252 for the second.

Going from “Gly-Leu-Phe-Glu-Asp (GLFED) [SEQ ID NO:8]” to “Gly-Tyr-Phe-Glu-Asp (GYFED) [SEQ ID NO:20]”, the “Relative Binding of MAb4155 to peptides” value rises from 100 to 220.

Compared with “Gly-Leu-Phe-Phe-Asp (GLFFD) [SEQ ID NO:24]”, “Gly-Leu-Phe-Glu-Cys (GLFEC) [SEQ ID NO:29]” is higher in “Relative Binding of MAb4155 to peptides” value: 184 for the first, 296 for the second.

Going from “Gly-Leu-Phe-Glu-Ile (GLFEI) [SEQ ID NO:31]” to “Gly-Leu-Phe-Glu-Tyr (GLFEY) [SEQ ID NO:35]”, the “Relative Binding of MAb4155 to peptides” value rises from 174 to 386.

First: Gly-Leu-Phe-Glu-Phe (GLFEF) [SEQ ID NO:30]
Second: Gly-Leu-Phe-Glu-Trp (GLFEW) [SEQ ID NO:34]
The “Relative Binding of MAb4155 to peptides” value of the first is lower: 204 for the first, 594 for the second.

Compared with “Gly-Trp-Phe-Glu-Asp (GWFED) [SEQ ID NO:19]”, “Gly-Leu-Phe-Glu-Leu (GLFEL) [SEQ ID NO:32]” is lower in “Relative Binding of MAb4155 to peptides” value: 343 for the first, 168 for the second.

Compared with “Gly-Leu-Phe-Asp-Asp (GLFDD) [SEQ ID NO:23]”, “Gly-Leu-Phe-Leu-Asp (GLFLD) [SEQ ID NO:26]” is higher in “Relative Binding of MAb4155 to peptides” value: 121 for the first, 138 for the second.

“Gly-Leu-Phe-Trp-Asp (GLFWD) [SEQ ID NO:27]” was tested, and the “Relative Binding of MAb4155 to peptides” value was 578.
